According to the SangsterLogP compilation:

Assay: method code SF-AS, from DOI: 10.1111/j.2042-7158.1993.tb07096.x, PMID: 7901370
Conditions: pH 7.4

| SMILES | logD |
| --- | --- |
| O=S(=O)(NC(=S)NC1CCCCC1)c1cnccc1NC1CCCCCCC1 | 2.14 |
| CCNC(=S)NS(=O)(=O)c1cnccc1NC1CCCCC1 | 0.2 |
| O=S(=O)(NC(=S)NC1CCCCC1)c1cnccc1NC1CCCCCC1 | 1.81 |
| CC(C)NC(=S)NS(=O)(=O)c1cnccc1NC1CCCCCCC1 | 1.3 |
| O=S(=O)(NC(=S)N1CCCCC1)c1cnccc1NC1CCCCC1 | 0.85 |
| O=S(=O)(NC(=S)N1CCCCC1)c1cnccc1NC1CCCCCC1 | 1.25 |
| O=S(=O)(NC(=S)N1CCCCC1)c1cnccc1NC1CCCCCCC1 | 1.6 |
| CCNC(=S)NS(=O)(=O)c1cnccc1NC1CCCCCCC1 | 0.96 |
